Each block holds one substance with its values, some of them ahead of it. Non-standard residues stand in square brackets, D forms with d. hArg = N=C(N)NCCCC[C@H](N)C(=O)O
Assays:
[1] = system: murine E^k MHC class II allele; test: simultaneous assay, E^k allele (CH27 APC, TPc9.1 T hybridoma, THMCC82-103 or PGCC81-104); format: cell-based
Procedure, shortened: (§1)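 Read-out is [3H]TdR incorporation into HT-2 indicator cells exposed to supernatant from a 24 h primary culture. That culture combined mitomycin C-treated APC (5×10^6 cells/mL, 0.025 mg/mL mitomycin C, 20 min, 37° C), peptide, effector compound and T hybridoma, all added at once.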

[2] = target: T1, murine E^d MHC class II allele (Mus musculus, UniProt P01904+P01915); test: simultaneous assay, E^d allele (A20 APC, G28.C9 T hybridoma, HEL106-116; HT-2 [3H]TdR readout); format: cell-based; parameters: The A20 and CH27 B cell lymphoma lines express H-2^d and H-2^k alleles, respectively; endogenous in cells; host or cells: A20 B cell lymphoma (mitomycin C-treated or paraformaldehyde-fixed)
T1 sequence (P01904 26-255): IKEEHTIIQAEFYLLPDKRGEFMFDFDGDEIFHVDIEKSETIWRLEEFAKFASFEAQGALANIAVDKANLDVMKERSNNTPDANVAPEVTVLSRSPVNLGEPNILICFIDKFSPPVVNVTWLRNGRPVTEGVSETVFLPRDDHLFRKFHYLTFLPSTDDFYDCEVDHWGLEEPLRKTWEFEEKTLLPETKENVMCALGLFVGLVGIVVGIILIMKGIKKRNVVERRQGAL
T1 sequence (P01915 27-264 limits assumed): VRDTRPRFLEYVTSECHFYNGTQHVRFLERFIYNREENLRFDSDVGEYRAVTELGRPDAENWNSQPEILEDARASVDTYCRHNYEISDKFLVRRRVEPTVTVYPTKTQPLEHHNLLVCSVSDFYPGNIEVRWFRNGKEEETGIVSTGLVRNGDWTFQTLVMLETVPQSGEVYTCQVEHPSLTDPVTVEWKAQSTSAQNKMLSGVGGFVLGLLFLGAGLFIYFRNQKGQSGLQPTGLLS
Procedure, shortened: as §1

[3] = Table 15, AE peptide 16 μM, supernatant 1:4
[4] = Table 14, AE peptide 64 μM, supernatant 1:4
[5] = Table 16, AE peptide 4 μM, supernatant 1:8
[6] = Table 4, AE109 homolog 64 μM, supernatant 1:2

Substance: Ac-ARNKNPK-NH2 [AE346]
Times Baseline Response, E^k [1, 3]: 1.8
Times Baseline Response, E^d [2, 3]: 1.2

Substance: Ac-LR L KLPK-NH2 (Ac-LRLKLPK-NH2; not fully specified; printed as Ac-LR L KLPK-NH2) [AE206]
Times Baseline Response, E^k ([1]; Table 5, AE peptide 64 μM, supernatant 1:4, normalized to E^d by a factor of 10): 33.9
Times Baseline Response, E^k [1, 4]: 53.5
Times Baseline Response, E^k [1, 3]: 35.3
Times Baseline Response, E^k [1, 5]: 1.3
Times Baseline Response, E^d ([2]; Table 5, AE peptide 64 μM, supernatant 1:4): 11.9
Times Baseline Response, E^d [2, 4]: 12.7
Times Baseline Response, E^d [2, 3]: 25.5
Times Baseline Response, E^d [2, 5]: 15.5

Substance: Ac-YRMK-NH2 [AE117]
Times Baseline Response, E^k ([1]; Table 1, AE peptide 16 μM (second value), 0.075 μM THMCC82-103, supernatant 1:2): 10.6
Times Baseline Response, E^k ([1]; Table 1, AE peptide 64 μM (first value), 0.075 μM THMCC82-103, supernatant 1:2): 14.6
Times Baseline Response, E^d ([2]; Table 1, AE peptide 16 μM (second value), 0.4 μM HEL106-116, supernatant 1:4): 1.0
Times Baseline Response, E^d ([2]; Table 1, AE peptide 64 μM (first value), 0.4 μM HEL106-116, supernatant 1:4): 2.3

Substance: Ac-LRMK HArg PK-NH2 (Ac-LRMK[hArg]PK-NH2; SMILES CSCC[C@H](NC(=O)[C@H](CCCNC(=N)N)NC(=O)[C@H](CC(C)C)NC(C)=O)C(=O)N[C@@H](CCCCN)C(=O)N[C@@H](CCCCNC(=N)N)C(=O)N1CCC[C@H]1C(=O)N[C@@H](CCCCN)C(N)=O) [AE227]
Times Baseline Response, E^k ([1]; Table 7, AE peptide 64 μM, supernatant 1:4, normalized by a factor of 5): 20.5
Times Baseline Response, E^k [1, 3]: 45.6
Times Baseline Response, E^d ([2]; Table 7, AE peptide 64 μM, supernatant 1:4): 8.1
Times Baseline Response, E^d [2, 3]: 32.3

Times Baseline Response, E^d [2, 6]: 0.8
Substance: Ac-Y L MKLPKSAK-NH2 [AE142]
Times Baseline Response, E^k [1, 6]: 1.0

Substance: Ac-LR m KLPK-NH2 [AE162]
Times Baseline Response, E^k ([1]; Table 11, AE peptide 64 μM, supernatant 1:4): 1.3
Times Baseline Response, E^d ([2]; Table 11, AE peptide 64 μM, supernatant 1:8): 2.2

Substance: Ac-ARMKLPKSAK-NH2 [AE120]
Times Baseline Response, E^k ([1]; Table 10, AE peptide 64 μM, supernatant 1:2 (first value)): 36.8
Times Baseline Response, E^k ([1]; Table 10, AE peptide 64 μM, supernatant 1:4 (second value)): 34.9
Times Baseline Response, E^k [1, 3]: 4.8
Times Baseline Response, E^d ([2]; Table 10, AE peptide 16 μM (second value), supernatant 1:2): 18.1
Times Baseline Response, E^d ([2]; Table 10, AE peptide 64 μM (first value), supernatant 1:2): 35.4
Times Baseline Response, E^d [2, 3]: 19.4

Times Baseline Response, E^d [2, 6]: 0.7
Substance: Ac-Y Y MKLPKSAK-NH2 [AE140]
Times Baseline Response, E^k [1, 6]: 0.9
